Test results reported in PubChem BioAssay (NCI).
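Interpolation was linear, between the two tested concentrations surrounding the appropriate level; five concentrations were tested over 48 hours in 96-well plates. GI50 is the concentration that inhibits growth by half. TGI marks complete inhibition of growth.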

Assays:
Assay in all cases: NCI anticancer screen, dose series, 48 h
786-0 renal = tested on: 786-0 renal
A498 renal = tested on: A498 renal
A549 NSCLC = tested on: A549 NSCLC
ACHN renal = tested on: ACHN renal
CAKI-1 renal = tested on: CAKI-1 renal
CCRF-CEM leukemia = tested on: CCRF-CEM leukemia
COLO 205 colon = tested on: COLO 205 colon
DLD-1 colon = tested on: DLD-1 colon
DMS 273 small cell lung = tested on: DMS 273 small cell lung
EKVX NSCLC = tested on: EKVX NSCLC
HCC-2998 colon = tested on: HCC-2998 colon
HCT-15 colon = tested on: HCT-15 colon
HL-60(TB) leukemia = tested on: HL-60(TB) leukemia
HOP-18 NSCLC = tested on: HOP-18 NSCLC
HOP-62 NSCLC = tested on: HOP-62 NSCLC
HOP-92 NSCLC = tested on: HOP-92 NSCLC
HT29 colon = tested on: HT29 colon
IGROV1 ovarian = tested on: IGROV1 ovarian
K-562 leukemia = tested on: K-562 leukemia
KM12 colon = tested on: KM12 colon
KM20L2 colon = tested on: KM20L2 colon
LOX IMVI melanoma = tested on: LOX IMVI melanoma
LXFL 529 NSCLC = tested on: LXFL 529 NSCLC
M14 melanoma = tested on: M14 melanoma
MALME-3M melanoma = tested on: MALME-3M melanoma
MOLT-4 leukemia = tested on: MOLT-4 leukemia
NCI-H23 lung = tested on: NCI-H23 lung
NCI-H460 lung = tested on: NCI-H460 lung
NCI-H522 lung = tested on: NCI-H522 lung
OVCAR-3 ovarian = tested on: OVCAR-3 ovarian
OVCAR-4 ovarian = tested on: OVCAR-4 ovarian
OVCAR-5 ovarian = tested on: OVCAR-5 ovarian
OVCAR-8 ovarian = tested on: OVCAR-8 ovarian
RPMI-8226 leukemia = tested on: RPMI-8226 leukemia
RXF 393 renal = tested on: RXF 393 renal
SF-268 CNS = tested on: SF-268 CNS
SF-295 CNS = tested on: SF-295 CNS
SF-539 CNS = tested on: SF-539 CNS
SK-MEL-2 melanoma = tested on: SK-MEL-2 melanoma
SK-MEL-28 melanoma = tested on: SK-MEL-28 melanoma
SK-MEL-5 melanoma = tested on: SK-MEL-5 melanoma
SK-OV-3 ovarian = tested on: SK-OV-3 ovarian
SN12C renal = tested on: SN12C renal
SNB-19 CNS = tested on: SNB-19 CNS
SNB-75 CNS = tested on: SNB-75 CNS
SW-620 colon = tested on: SW-620 colon
TK-10 renal = tested on: TK-10 renal
U251 CNS = tested on: U251 CNS
UACC-257 melanoma = tested on: UACC-257 melanoma
UACC-62 melanoma = tested on: UACC-62 melanoma
UO-31 renal = tested on: UO-31 renal
XF 498 CNS = tested on: XF 498 CNS

NC1CCCCC1N.O=NN1CCCCCC1(P(=O)([O-])[O-])P(=O)([O-])[O-].[Na+].[Pt+2]
GI50 (786-0 renal): > 100 µM | TGI (786-0 renal): > 100 µM | GI50 (A498 renal): > 100 µM | TGI (A498 renal): > 100 µM | GI50 (A549 NSCLC): > 100 µM | TGI (A549 NSCLC): > 100 µM | GI50 (ACHN renal): > 100 µM | TGI (ACHN renal): > 100 µM | GI50 (CAKI-1 renal): > 100 µM | TGI (CAKI-1 renal): > 100 µM | GI50 (CCRF-CEM leukemia): > 100 µM | TGI (CCRF-CEM leukemia): > 100 µM | GI50 (COLO 205 colon): > 100 µM | TGI (COLO 205 colon): > 100 µM | GI50 (DLD-1 colon): > 100 µM | TGI (DLD-1 colon): > 100 µM | GI50 (DMS 273 small cell lung): > 100 µM | TGI (DMS 273 small cell lung): > 100 µM | GI50 (EKVX NSCLC): > 100 µM | TGI (EKVX NSCLC): > 100 µM | GI50 (HCC-2998 colon): > 100 µM | TGI (HCC-2998 colon): > 100 µM | GI50 (HCT-15 colon): > 100 µM | TGI (HCT-15 colon): > 100 µM | GI50 (HL-60(TB) leukemia): > 100 µM | TGI (HL-60(TB) leukemia): > 100 µM | GI50 (HOP-18 NSCLC): > 100 µM | TGI (HOP-18 NSCLC): > 100 µM | GI50 (HOP-62 NSCLC): > 100 µM | TGI (HOP-62 NSCLC): > 100 µM | GI50 (HOP-92 NSCLC): > 100 µM | TGI (HOP-92 NSCLC): > 100 µM | GI50 (HT29 colon): > 100 µM | TGI (HT29 colon): > 100 µM | GI50 (IGROV1 ovarian): > 100 µM | TGI (IGROV1 ovarian): > 100 µM | GI50 (K-562 leukemia): > 100 µM | TGI (K-562 leukemia): > 100 µM | GI50 (KM12 colon): > 100 µM | TGI (KM12 colon): > 100 µM | GI50 (KM20L2 colon): > 100 µM | TGI (KM20L2 colon): > 100 µM | GI50 (LOX IMVI melanoma): > 100 µM | TGI (LOX IMVI melanoma): > 100 µM | GI50 (LXFL 529 NSCLC): > 100 µM | TGI (LXFL 529 NSCLC): > 100 µM | GI50 (M14 melanoma): > 100 µM | TGI (M14 melanoma): > 100 µM | GI50 (MALME-3M melanoma): > 100 µM | TGI (MALME-3M melanoma): > 100 µM | GI50 (MOLT-4 leukemia): > 100 µM | TGI (MOLT-4 leukemia): > 100 µM | GI50 (NCI-H23 lung): > 100 µM | TGI (NCI-H23 lung): > 100 µM | GI50 (NCI-H460 lung): > 100 µM | TGI (NCI-H460 lung): > 100 µM | GI50 (NCI-H522 lung): > 100 µM | TGI (NCI-H522 lung): > 100 µM | GI50 (OVCAR-3 ovarian): > 100 µM | TGI (OVCAR-3 ovarian): > 100 µM | GI50 (OVCAR-4 ovarian): > 100 µM | TGI (OVCAR-4 ovarian): > 100 µM | GI50 (OVCAR-5 ovarian): > 100 µM | TGI (OVCAR-5 ovarian): > 100 µM | GI50 (OVCAR-8 ovarian): > 100 µM | TGI (OVCAR-8 ovarian): > 100 µM | GI50 (RPMI-8226 leukemia): > 100 µM | TGI (RPMI-8226 leukemia): > 100 µM | GI50 (RXF 393 renal): > 100 µM | TGI (RXF 393 renal): > 100 µM | GI50 (SF-268 CNS): > 100 µM | TGI (SF-268 CNS): > 100 µM | GI50 (SF-295 CNS): > 100 µM | TGI (SF-295 CNS): > 100 µM | GI50 (SF-539 CNS): > 100 µM | TGI (SF-539 CNS): > 100 µM | GI50 (SK-MEL-2 melanoma): > 100 µM | TGI (SK-MEL-2 melanoma): > 100 µM | GI50 (SK-MEL-28 melanoma): > 100 µM | TGI (SK-MEL-28 melanoma): > 100 µM | GI50 (SK-MEL-5 melanoma): > 100 µM | TGI (SK-MEL-5 melanoma): > 100 µM | GI50 (SK-OV-3 ovarian): > 100 µM | TGI (SK-OV-3 ovarian): > 100 µM | GI50 (SN12C renal): > 100 µM | TGI (SN12C renal): > 100 µM | GI50 (SNB-19 CNS): > 100 µM | TGI (SNB-19 CNS): > 100 µM | GI50 (SNB-75 CNS): 96.9 µM | TGI (SNB-75 CNS): > 100 µM | GI50 (SW-620 colon): > 100 µM | TGI (SW-620 colon): > 100 µM | GI50 (TK-10 renal): > 100 µM | TGI (TK-10 renal): > 100 µM | GI50 (U251 CNS): > 100 µM | TGI (U251 CNS): > 100 µM | GI50 (UACC-257 melanoma): > 100 µM | TGI (UACC-257 melanoma): > 100 µM | GI50 (UACC-62 melanoma): > 100 µM | TGI (UACC-62 melanoma): > 100 µM | GI50 (UO-31 renal): > 100 µM | TGI (UO-31 renal): > 100 µM | GI50 (XF 498 CNS): > 100 µM | TGI (XF 498 CNS): > 100 µM
